One series relates to MV4-11. The experiment in a line: Antiproliferative activity against human MV4-11 cells harboring FLT3-ITD mutant assessed as cell growth inhibition by trypan blue staining based assay. It counts as functional.
For series [1], the system named is BaF3. As to the kind of experiment: Antiproliferative activity against […] cells harboring D835Y mutant assessed as cell growth inhibition by trypan blue staining based assay. The class given is functional. The settings on record: Mus musculus.
Series [2] concerns BaF3. As to the kind of experiment: Antiproliferative activity against […] cells harboring D835G mutant assessed as cell growth inhibition by trypan blue staining based assay. Particulars: Mus musculus. It counts as functional.
The subject of a further series is MOLM-13. As to the kind of experiment: Antiproliferative activity against human MOLM13 cells harboring FLT3-ITD mutant assessed as cell growth inhibition by Trypan blue staining based assay. The class given is functional.
Series [3] can be described thus: Cmax in BomTac:NMRI-Foxn1 mouse xenografted with human Calu6 cells harboring KRAS Q61K mutant at 70 mg/kg per week, po via gavage measured after 24 hrs by electrochemo-luminescence analysis. The class given is ADME, organism-based, Calu-6. The arrangement: dose 70 mg/kg, time 24 hrs, route po. Particulars: in vivo. Background: In xenograft studies the graft and the host belong to different species.

Series [4] in a line: Cmax in BomTac:NMRI-Foxn1 mouse xenografted with human Calu6 cells harboring KRAS Q61K mutant at 70 mg/kg per week, po via gavage by electrochemo-luminescence analysis. The arrangement: dose 70 mg/kg, route po. Particulars: in vivo. The class given is ADME, organism-based, Calu-6.
Series [5] in a line: Cmax in BomTac:NMRI-Foxn1 mouse xenografted with human Calu6 cells harboring KRAS Q61K mutant at 10 mg/kg per day, po via gavage measured after 24 hrs by electrochemo-luminescence analysis. It counts as ADME, organism-based, Calu-6. Also noted: time 24 hrs, dose 10 mg/kg, route po. The settings on record: in vivo.
The nature of series [6]: Cmax in BomTac:NMRI-Foxn1 mouse xenografted with human Calu6 cells harboring KRAS Q61K mutant at 10 mg/kg per day, po via gavage by electrochemo-luminescence analysis. It counts as ADME, organism-based, Calu-6. Particulars: in vivo. Also noted: dose 10 mg/kg, route po.
In a further series the target is Aurora kinase B-B (Xenopus laevis, UniProt Q6GPL3). The experiment in a line: Inhibition of Xenopus laevis Aurora Kinase B.
Chain of Aurora kinase B-B (Q6GPL3 whole entry): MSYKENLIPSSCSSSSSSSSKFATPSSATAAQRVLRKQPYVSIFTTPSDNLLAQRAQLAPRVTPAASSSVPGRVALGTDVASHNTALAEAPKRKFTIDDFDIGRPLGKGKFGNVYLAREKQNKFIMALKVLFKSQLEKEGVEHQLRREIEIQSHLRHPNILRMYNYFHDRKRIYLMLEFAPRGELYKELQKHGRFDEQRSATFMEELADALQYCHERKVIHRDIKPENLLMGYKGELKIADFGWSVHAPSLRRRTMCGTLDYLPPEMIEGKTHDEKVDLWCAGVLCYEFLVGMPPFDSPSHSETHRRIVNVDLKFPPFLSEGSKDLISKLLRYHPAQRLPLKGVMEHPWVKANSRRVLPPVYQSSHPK
A short description of series [7]: Inhibition of Xenopus laevis Aurora Kinase C.
The next series relates to HCT-116. The experiment in a line: Antiproliferative activity against human HCT-116 cells harboring […] mutant assessed as cell growth inhibition measured after 72 hrs by WST-8 assay. The class given is functional, cell-based. The settings on record: HCT-116, 72 h.
A further series concerns SK-MEL-28. As to the kind of experiment: Antiproliferative activity against human SK-MEL-28 cells harboring BRAF V600E mutant assessed as cell growth inhibition measured after 72 hrs by WST-8 assay. Particulars: SK-MEL-28, 72 h. It counts as functional, cell-based. A general note: Formazan colour is commonly taken as a measure of viable cells.
Series [8] concerns the target Serine/threonine-protein kinase B-raf (Homo sapiens, UniProt P15056). As to the kind of experiment: Inhibition of wild type human BRAF using 5-Fl-SGQLIDSMANSFV-NH2 peptide as substrate by FRET assay.
Another series relates to MIA PaCa-2. As to the kind of experiment: Antiproliferative activity against human MIA PaCa-2 cells harboring […] mutant assessed as cell growth inhibition measured after 72 hrs by WST-8 assay. It counts as functional, cell-based. The settings on record: MIA PaCa-2, 72 h.
For series [9], the target named is Serine/threonine-protein kinase B-raf (Homo sapiens, UniProt P15056, V600E). As to the kind of experiment: Inhibition of human BRAF V600E mutant using 5-Fl-SGQLIDSMANSFV-NH2 peptide as substrate by FRET assay.
Chain of Serine/threonine-protein kinase B-raf (Homo sapiens, UniProt P15056, V600E) (P15056 2-766 V600E limits assumed): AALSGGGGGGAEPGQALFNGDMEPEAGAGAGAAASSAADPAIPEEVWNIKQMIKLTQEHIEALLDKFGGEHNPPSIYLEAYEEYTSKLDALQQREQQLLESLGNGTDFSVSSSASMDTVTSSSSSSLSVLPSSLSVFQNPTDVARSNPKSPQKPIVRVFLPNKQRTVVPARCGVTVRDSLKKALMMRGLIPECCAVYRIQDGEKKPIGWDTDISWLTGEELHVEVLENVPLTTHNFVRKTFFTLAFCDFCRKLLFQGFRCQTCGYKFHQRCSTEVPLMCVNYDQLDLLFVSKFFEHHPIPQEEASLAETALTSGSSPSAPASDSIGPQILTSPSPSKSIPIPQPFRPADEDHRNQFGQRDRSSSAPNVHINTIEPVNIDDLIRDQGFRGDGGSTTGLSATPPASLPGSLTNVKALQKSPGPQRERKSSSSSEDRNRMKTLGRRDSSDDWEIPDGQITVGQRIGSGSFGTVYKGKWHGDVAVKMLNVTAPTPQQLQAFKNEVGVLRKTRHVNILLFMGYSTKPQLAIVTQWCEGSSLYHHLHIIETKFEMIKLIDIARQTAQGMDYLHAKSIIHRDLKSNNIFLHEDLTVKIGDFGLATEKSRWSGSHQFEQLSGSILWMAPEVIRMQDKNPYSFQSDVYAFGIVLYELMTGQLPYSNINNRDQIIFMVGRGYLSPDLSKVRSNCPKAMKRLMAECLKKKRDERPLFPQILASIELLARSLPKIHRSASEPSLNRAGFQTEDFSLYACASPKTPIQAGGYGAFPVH
A further series deals with SK-MEL-2. As to the kind of experiment: Antiproliferative activity against human SK-MEL-2 cells harboring NRAS Q61R mutant assessed as cell growth inhibition measured after 72 hrs by WST-8 assay. It counts as functional, cell-based. The settings on record: SK-MEL-2, 72 h.
The nature of series [10]: Inhibition of human MEK using 5-Fl-SGQLIDSMANSFV-NH2 peptide as substrate by FRET assay.
Series [11] can be described thus: Antiproliferative activity against human CT-TC cells harboring HRAS Q61K mutant assessed as cell growth inhibition measured after 72 hrs by WST-8 assay. It counts as functional, cell-based.
For the next series, the system named is SW480. As to the kind of experiment: Antiproliferative activity against human SW480 cells harboring […] mutant assessed as cell growth inhibition measured after 72 hrs by WST-8 assay. The settings on record: SW480, 72 h. It counts as functional, cell-based.

SMILES strings stand for the structures.

Chain of Serine/threonine-protein kinase B-raf (Homo sapiens, UniProt P15056) (P15056 whole entry): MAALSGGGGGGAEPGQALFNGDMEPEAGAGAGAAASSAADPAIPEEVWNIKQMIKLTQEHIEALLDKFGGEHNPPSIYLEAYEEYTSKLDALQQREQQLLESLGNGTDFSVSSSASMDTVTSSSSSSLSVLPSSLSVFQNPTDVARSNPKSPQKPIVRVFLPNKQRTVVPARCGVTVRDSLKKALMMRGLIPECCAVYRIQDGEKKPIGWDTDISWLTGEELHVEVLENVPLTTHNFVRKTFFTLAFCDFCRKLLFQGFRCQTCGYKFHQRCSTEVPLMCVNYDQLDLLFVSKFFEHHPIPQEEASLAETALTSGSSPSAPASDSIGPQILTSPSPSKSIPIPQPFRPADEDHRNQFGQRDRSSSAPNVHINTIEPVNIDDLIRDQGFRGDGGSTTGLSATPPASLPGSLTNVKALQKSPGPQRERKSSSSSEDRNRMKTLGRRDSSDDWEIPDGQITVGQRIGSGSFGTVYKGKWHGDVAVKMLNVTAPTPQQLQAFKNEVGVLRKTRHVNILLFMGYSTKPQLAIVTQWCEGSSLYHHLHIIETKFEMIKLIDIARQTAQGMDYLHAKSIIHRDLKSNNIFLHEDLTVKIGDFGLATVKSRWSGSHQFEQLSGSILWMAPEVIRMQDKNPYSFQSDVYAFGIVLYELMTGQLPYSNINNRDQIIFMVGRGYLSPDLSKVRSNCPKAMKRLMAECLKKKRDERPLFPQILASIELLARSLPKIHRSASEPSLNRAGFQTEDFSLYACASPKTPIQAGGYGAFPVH

One may read the IC50 as the concentration that gives 50% inhibition. Regarding `CCNc1cc(O)c2c(c1)/C=C/C[C@H](O)[C@H](O)C(=O)/C=C\[C@@H](C)[C@H](C)OC2=O` [E-6201], the IC50 in the series with MV4-11 was determined as 2 nM; in the series on BaF3 [1], 26 nM; with BaF3 [2] it was 4.6 nM; with MOLM-13, 5 nM.

Broadly, the Cmax is the maximum level reached in the sampled fluid or tissue. `CCNC(=O)C#Cc1ccc2c(c1)NC(=O)/C2=C(\Nc1ccc(CN(C)C)cc1)c1ccccc1`: the peak concentration (Cmax) came to 460 nM in [3], 2700 nM in series [4], 13 nM in series [5] and 380 nM in series [6]. Also, the IC50 against Aurora kinase B-B stood at 3 nM; in series [7], 15 nM.

Turning to `CNS(=O)(=O)Nc1nccc(Cc2c(C)c3ccc(Oc4ncccn4)cc3oc2=O)c1F` [AVUTOMETINIB], the IC50 stood at 277 nM with HCT-116; 65 nM in the series on SK-MEL-28; 19 nM in series [8]; 40 nM with MIA PaCa-2; 8.2 nM in series [9]; 28 nM in the series on SK-MEL-2. Further, the IC50 in [10] was determined as 160 nM; in series [11], 360 nM; in the series with SW480 it was 46 nM.

(Values after ChEMBL document CHEMBL5104137, “The overview of Mitogen-activated extracellular signal-regulated kinase (MEK)-based dual inhibitor in the treatment of cancers” (Bioorg Med Chem, 2022).)
